Laboratory results published in patent US11504382B2, “Tricyclic inhibitors of Hepatitis B virus” (Antios Therapeutics, Inc., priority 2018, dated 2022).
Read-outs that look alike come from different tables or passages of the source.

Tested on: HBV
Assay: HBV inhibition assay in HepAD38 cells (extracellular HBV DNA by direct qPCR)
Type: cell-based, Hepatitis B virus
Details: 96 hours; for EC50: 8-point dose-response curve, read-out: HBV inh EC50
[1] = Hepatitis B virus, relative to non-treated reference, read-out: Anti HBV Activity (conc μM)

Cn1cc2c(c1C(=O)Nc1cc(F)c(F)c(F)c1)OCC1CN(C(=O)c3c[nH]c(=O)cn3)CC1NS2(=O)=O (stereo not drawn) [Example E56, cis-7-methyl-2-(5-oxo-4,5-dihydropyrazine-2-carbonyl)-N-(3,4,5-trifluorophenyl)-2,3,3a,4,10,10a-hexahydro-1H,7H-dipyrrolo[3,4-b:3′,4′-f][1,4,5]oxathiazocine-8-carboxamide 5,5-dioxide]
inhibition at 0.1 µM [1]: < 50%

Cn1cc2c(c1C(=O)Nc1cc(F)c(F)c(F)c1)OCC1CN(C(=O)c3cnco3)CC1NS2(=O)=O (stereo not drawn) [Example E64, cis-7-methyl-2-(oxazole-5-carbonyl)-N-(3,4,5-trifluorophenyl)-2,3,3a,4,10,10a-hexahydro-1H,7H-dipyrrolo[3,4-b:3′,4′-f][1,4,5]oxathiazocine-8-carboxamide 5,5-dioxide]
EC50 (Hepatitis B virus): < 1000 nM

CCOC(=O)N1CC[C@H]2NS(=O)(=O)c3cn(C)c(C(=O)Nc4ccc(F)c(F)c4)c3OC[C@H]21 [Example E27, Ethyl (3aR,10aS)-8-((3,4-difluorophenyl)carbamoyl)-7-methyl-2,3,3a,4,10,10a-hexahydro-1H,7H-dipyrrolo[3,4-b:3′,2′-f][1,4,5]oxathiazocine-1-carboxylate 5,5-dioxide]
inhibition at 0.1 µM [1]: < 50%

Cc1cc(NC(=O)c2c3c(cn2C)S(=O)(=O)NC2CN(c4nnco4)CC2CO3)ccc1F (stereo not drawn) [Example E49, cis-N-(4-fluoro-3-methylphenyl)-7-methyl-2-(1,3,4-oxadiazol-2-yl)-2,3,3a,4,10,10a-hexahydro-1H,7H-dipyrrolo[3,4-b:3′,4′-f][1,4,5]oxathiazocine-8-carboxamide 5,5-dioxide]
EC50 (Hepatitis B virus): < 1000 nM

Cc1cc(NC(=O)c2c3c(cn2C)S(=O)(=O)NC2CN(C(=O)C4(C)COC4)CCC2CO3)ccc1F (racemic) [Example E136, Cis-N-(4-fluoro-3-methylphenyl)-2-methyl-7-(3-methyloxetane-3-carbonyl)-5,5a,6,7,8,9,9a,10-octahydro-2H-pyrido[3,4-f]pyrrolo[3,4-b][1,4,5]oxathiazocine-1-carboxamide 4,4-dioxide]
EC50 (Hepatitis B virus): < 1000 nM

Cc1cc(NC(=O)c2c3c(cn2C)S(=O)(=O)NC2C(=O)N(Cc4ccccc4)CC2CO3)ccc1F (stereo not drawn) [Example E155, Cis 2-benzyl-N-(4-fluoro-3-methylphenyl)-7-methyl-3-oxo-2,3,3a,4,10,10a-hexahydro-1H,7H-dipyrrolo[3,4-b:3′,4′-f][1,4,5]oxathiazocine-8-carboxamide 5,5-dioxide]
EC50 (Hepatitis B virus): < 1000 nM

Cc1nnc(N2CC3COc4c(cn(C)c4C(=O)Nc4cc(F)c(F)c(F)c4)S(=O)(=O)NC3C2)o1 (stereo not drawn) [Example E78, cis-7-methyl-2-(5-methyl-1,3,4-oxadiazol-2-yl)-N-(3,4,5-trifluorophenyl)-2,3,3a,4,10,10a-hexahydro-1H,7H-dipyrrolo[3,4-b:3′,4′-f][1,4,5]oxathiazocine-8-carboxamide 5,5-dioxide]
inhibition at 0.05 µM (Hepatitis B virus, 0.05 μM, relative to non-treated reference, read-out: Anti HBV Activity (conc μM)): > 50% | EC50 (Hepatitis B virus): < 1000 nM

CC(=O)OCC(=O)N1CC2COc3c(cn(C)c3C(=O)Nc3cc(F)c(F)c(F)c3)S(=O)(=O)NC2C1 (stereo not drawn) [Example E70, cis-2-(7-methyl-5,5-dioxido-8-((3,4,5-trifluorophenyl)carbamoyl)-3a,4,10,10a-tetrahydro-1H,7H-dipyrrolo[3,4-b:3′,4′-f][1,4,5]oxathiazocin-2(3H)-yl)-2-oxoethyl acetate]
inhibition at 0.1 µM [1]: < 50%

Cc1cc(NC(=O)c2c3c(cn2C)S(=O)(=O)NC2CN(C(=O)C4(C)CCCO4)CC2(C)CO3)ccc1F (stereo not drawn) [Example E88, cis-N-(4-fluoro-3-methylphenyl)-7,10a-dimethyl-2-(2-methyltetrahydrofuran-2-carbonyl)-2,3,3a,4,10,10a-hexahydro-1H,7H-dipyrrolo[3,4-b:3′,4′-f][1,4,5]oxathiazocine-8-carboxamide 5,5-dioxide]
EC50 (Hepatitis B virus): < 1000 nM

Cn1cc2c(c1C(=O)Nc1cc(F)c(F)c(F)c1)OCC1CN(S(=O)(=O)C3CC3)CC1NS2(=O)=O (racemic) [Example E20, cis-2-(cyclopropylsulfonyl)-7-methyl-N-(3,4,5-trifluorophenyl)-2,3,3a,4,10,10a-hexahydro-1H,7H-dipyrrolo[3,4-b:3′,4′-f][1,4,5]oxathiazocine-8-carboxamide 5,5-dioxide]
inhibition at 0.1 µM [1]: > 50% | EC50 (Hepatitis B virus): < 1000 nM

Cn1cc2c(c1C(=O)Nc1cc(F)c(F)c(F)c1)OC1COCC1NS2(=O)=O (racemic) [Example E7, trans-7-methyl-N-(3,4,5-trifluorophenyl)-1,3a,4,9a-tetrahydro-3H,7H-furo[3,4-f]pyrrolo[3,4-b][1,4,5]oxathiazepine-8-carboxamide 5,5-dioxide]
EC50 (Hepatitis B virus): < 1000 nM

CCOC(=O)N1CC2COc3c(cn(C)c3C(=O)Nc3ccc(F)c(C#N)c3)S(=O)(=O)NC2C1 (racemic) [Example E17, Cis-Ethyl 8-((3-cyano-4-fluorophenyl)carbamoyl)-7-methyl-3a,4,10,10a-tetrahydro-1H,7H-dipyrrolo[3,4-b:3′,4′-f][1,4,5]oxathiazocine-2(3H)-carboxylate 5,5-dioxide]
inhibition at 0.1 µM [1]: > 50% | EC50 (Hepatitis B virus): < 1000 nM

Cc1cc(NC(=O)c2c3c(cn2C)S(=O)(=O)NC2CN(C(=O)C4(C)COC4)CCC2CO3)ccc1F (racemic) [Example E141, Trans-N-(4-fluoro-3-methylphenyl)-2-methyl-7-(3-methyloxetane-3-carbonyl)-5,5a,6,7,8,9,9a,10-octahydro-2H-pyrido[3,4-f]pyrrolo[3,4-b][1,4,5]oxathiazocine-1-carboxamide 4,4-dioxide]
EC50: < 1000 nM

Cn1cc2c(c1C(=O)Nc1cc(F)c(F)c(F)c1)OC[C@H]1CN(C(=O)COP(=O)(O)O)C[C@H]1NS2(=O)=O (relative stereo) [Example E72, cis-2-(7-methyl-5,5-dioxido-8-((3,4,5-trifluorophenyl)carbamoyl)-3a,4,10,10a-tetrahydro-1H,7H-dipyrrolo[3,4-b:3′,4′-f][1,4,5]oxathiazocin-2(3H)-yl)-2-oxoethyl Dihydrogen Phosphate]
inhibition at 0.1 µM [1]: < 50%

CNC(=O)N1CC[C@H]2NS(=O)(=O)c3cn(C)c(C(=O)Nc4ccc(F)c(F)c4)c3OC[C@H]21 (single isomer, unassigned) [Example E26]
inhibition at 0.1 µM [1]: < 50%

CCOC(=O)N1CC2COc3c(cn(C)c3C(=O)Nc3cc(F)c(F)c(F)c3)S(=O)(=O)NC2C1 (racemic) [Example E10, Cis-Ethyl 7-methyl-8-((3,4,5-trifluorophenyl)carbamoyl)-3a,4,10,10a-tetrahydro-1H,7H-dipyrrolo[3,4-b:3′,4′-f][1,4,5]oxathiazocine-2(3H)-carboxylate 5,5-dioxide]
inhibition at 0.5 µM (Hepatitis B virus, 0.5 μM, relative to non-treated reference, read-out: Anti HBV Activity (conc μM)): > 50% | EC50 (Hepatitis B virus): < 1000 nM

Cc1nc(C(=O)N2C[C@H]3COc4c(cn(C)c4C(=O)Nc4ccc(F)c(C)c4)S(=O)(=O)N[C@H]3C2)co1 [Example E112, (3aR,10aR)—N-(4-fluoro-3-methylphenyl)-7-methyl-2-(2-methyloxazole-4-carbonyl)-2,3,3a,4,10,10a-hexahydro-1H,7H-dipyrrolo[3,4-b:3′,4′-f][1,4,5]oxathiazocine-8-carboxamide 5,5-dioxide]
EC50 (Hepatitis B virus): < 1000 nM

Cc1nnc(C(=O)N2CC3NS(=O)(=O)c4cn(C)c(C(=O)Nc5ccc(F)c(C)c5)c4OCC3(C)C2)o1 (stereo not drawn) [Example E86, cis-N-(4-fluoro-3-methylphenyl)-7,10a-dimethyl-2-(5-methyl-1,3,4-oxadiazole-2-carbonyl)-2,3,3a,4,10,10a-hexahydro-1H,7H-dipyrrolo[3,4-b:3′,4′-f][1,4,5]oxathiazocine-8-carboxamide 5,5-dioxide]
EC50 (Hepatitis B virus): < 1000 nM

Cn1cc2c(c1C(=O)Nc1ccc(F)c(F)c1)OC[C@@H]1CCC[C@H]1NS2(=O)=O [Example E8, (5aR,8aR)—N-(3,4-difluorophenyl)-2-methyl-5a,6,7,8,8a,9-hexahydro-2H,5H-cyclopenta[f]pyrrolo[3,4-b][1,4,5]oxathiazocine-1-carboxamide 4,4-dioxide]
EC50 (Hepatitis B virus): < 1000 nM

Cn1cc2c(c1C(=O)Nc1cc(F)c(F)c(F)c1)OCC1CN(c3cnccn3)CC1NS2(=O)=O (stereo not drawn) [Example E82, cis-7-methyl-2-(pyrazin-2-yl)-N-(3,4,5-trifluorophenyl)-2,3,3a,4,10,10a-hexahydro-1H,7H-dipyrrolo[3,4-b:3′,4′-f][1,4,5]oxathiazocine-8-carboxamide 5,5-dioxide]
inhibition at 0.1 µM [1]: > 50%

Cc1nnc(C(=O)N2CC3NS(=O)(=O)c4cn(C)c(C(=O)Nc5ccc(F)c(C)c5)c4OCC3(C)C2)o1 (single isomer, unassigned) [Example E96, N-(4-fluoro-3-methylphenyl)-7,10a-dimethyl-2-(5-methyl-1,3,4-oxadiazole-2-carbonyl)-2,3,3a,4,10,10a-hexahydro-1H,7H-dipyrrolo[3,4-b:3′,4′-f][1,4,5]oxathiazocine-8-carboxamide 5,5-dioxide (Chiral 3aS,10aS or 3aR,10aR - Stereochemistry unknown)]
EC50: < 1000 nM

Cc1cc(NC(=O)c2c3c(cn2C)S(=O)(=O)NC2CN(C(=O)c4ncoc4C)CC2(C)CO3)ccc1F (stereo not drawn) [Example E87, cis-N-(4-fluoro-3-methylphenyl)-7,10a-dimethyl-2-(5-methyloxazole-4-carbonyl)-2,3,3a,4,10,10a-hexahydro-1H,7H-dipyrrolo[3,4-b:3′,4′-f][1,4,5]oxathiazocine-8-carboxamide 5,5-dioxide]
EC50 (Hepatitis B virus): < 1000 nM

Cc1cc(NC(=O)c2c3c(cn2C)S(=O)(=O)N[C@H]2CN(C(=O)[C@@H]4CCCO4)C[C@H]2CO3)ccc1F [Example E101, (3aR,10aR)—N-(4-fluoro-3-methylphenyl)-7-methyl-2-((S)-tetrahydrofuran-2-carbonyl)-2,3,3a,4,10,10a-hexahydro-1H,7H-dipyrrolo[3,4-b:3′,4′-f][1,4,5]oxathiazocine-8-carboxamide 5,5-dioxide]
EC50 (Hepatitis B virus): < 1000 nM

Cn1cc2c(c1C(=O)Nc1ccc(F)c(F)c1)OCC1CCN1S2(=O)=O (centres unmarked) [Example E3, N-(3,4-difluorophenyl)-2-methyl-6,7,7a,8-tetrahydro-2H-azeto[1,2-e]pyrrolo[3,4-b][1,4,5]oxathiazepine-1-carboxamide 4,4-dioxide]
inhibition at 1 µM (Hepatitis B virus, 1 μM, relative to non-treated reference, read-out: Anti HBV Activity (conc μM)): > 50% | EC50 (Hepatitis B virus): < 1000 nM
